PubChem BioAssay AID2060493 (Molecular Pharmacology Branch, DTP, NCI, 2025)
pIC50: −log10 of the molar value. Several values for one entry are separate records, joined by “and”; a condition that tells them apart may be missing. Equal values may be shown once.

System: 616215-338-R-J1-PDC tumor spheroids, viability
Test: Anticancer human tumor 616215-338-R-J1-PDC patient-derived colon adenocarcinoma cell line growth inhibition [GQUAD]
Details: spheroids with HUVEC and MSC; for viability, T/C: stronger effect = lower value
Description: DNA G-quadruplex Stabilizer Agents in Combinations in Complex Spheroids
A high-throughput screen of multi-cell type tumor spheroids was designed to identify active combinations of DNA G-quadruplex stabilizer agents and targeted small molecules. Complex spheroids include a stromal component modeled by human endothelial cells (HUVEC) and fibroblasts modeled by human mesenchymal stem cells (MSCs). The concentration ranges selected for each drug and investigational agent were based upon clinically achievable concentrations if the clinical Cmax of the agent was known.
Compounds. The drugs and investigational agents: pidnarulex (CX-5461; NSC782164), APTO-253 (NSC789042), BRACO-19 (NSC847499), peposertib (NSC802822), ceralasertib (NSC780249), elimusertib (NSC800525), camonsertib (NSC841442), AZD-1390 (NSC803789), olaparib (NSC753686), talazoparib (NSC767125), ART-558 (NSC835418), sotorasib (NSC818433), MRTX-1133 (NSC836407), SN-38 (NSC673596), topotecan (NSC609699), etoposide (NSC141540), doxorubicin (NSC123127), gemcitabine (NSC613327), 5-fluorouracil (NSC19893), paclitaxel (NSC125973), vemurafenib (NSC761431), panobinostat (NSC761190), R-306465 (JNJ-16241199; NSC773264), adavosertib (NSC754352), TP-3654 (NSC805149), carboplatin (NSC241240), KSQ-4279 (NSC840948), and staurosporine (NSC755774) were obtained from the National Cancer Institute (NCI) Developmental Therapeutics Program Chemical Repository (34). The FDA-approved anticancer drug set is available from the NCI Developmental Therapeutics Program. […] The stock solutions were prepared in dimethyl sulfoxide (DMSO, Sigma-Aldrich, St. Louis, MO, cat. D2650) at 800-fold the tested concentration and stored at -70 degrees C prior to their use. All drugs and investigational agents were tested over a range starting from a high concentration at or near the clinical Cmax and decreasing in half-log increments. If the clinical Cmax for an agent had not been determined, the highest concentration tested was 10 microM.
2.3 Cell Culture. All cells were maintained in an incubator at 37 degrees C and 5% CO2 with 95% humidity. The PDC lines were cultured according to standard operating procedures established by the NCI PDMR. All PDCs were thawed and cultured in Matrigel-coated flasks prepared with a working solution of 1X Ham's F-12 nutrient mix, without supplementation (Invitrogen, cat. 11765054), 100 U/mL penicillin-streptomycin (Invitrogen, cat. 15140122), and 2.5% Matrigel (Corning Inc., cat. 354248) for the first three passages. The 857933-349-R-J2-PDC line was cultured in 6C/Colon 1B media, which includes advanced DMEM/F-12 (Thermo Fisher Scientific, cat. 12634028), 10 mM HEPES (Thermo Fisher Scientific, cat. 15630080), 1X GlutaMAX supplement (Thermo Fisher Scientific, cat. 35050061), 0.1 mg/mL primocin (InvivoGen, cat. ant-pm-2), 10% defined fetal bovine serum, heat inactivated (HyClone Laboratories Inc., cat. SH30070.03HI), 50% L-WRN conditioned media (ATCC, cat. CRL-3276), 1.25 mM N-Acetyl-L-cysteine (Sigma-Aldrich, cat. A9165), 10 mM nicotinamide (Sigma-Aldrich, cat. N0636), 1X B-27 supplement (Thermo Fisher Scientific, cat. 17504044), 1X N-2 supplement (Thermo Fisher Scientific, cat. 17502048), 10 microM Y-27632 dihydrochloride (Tocris Bioscience, cat. 1254), and 50 ng/mL human EGF recombinant protein (Thermo Fisher Scientific, cat. PHG0311). The 485176-168-R4-J1-PDC line was cultured in Panc media, which includes all 6C/Colon 1B media components plus 100 ng/mL human FGF-10 (Thermo Fisher Scientific, cat. 100-26), 500 nM SB-431542 (Selleckchem, cat. S1067), and gastrin (Tocris, cat. 3006).
[…]
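Also: spheroids exposed to agents for 7 days before readout.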
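For viability, T/C in this document: percent viability relative to DMSO vehicle control wells taken as 100%.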

For COc1ncnc(C2CC2)c1-c1ncc2cnn(Cc3ccc(-c4nc(C(F)(F)F)cn4C(C)C)cc3)c2n1, the viability, T/C (compound 0.0316 µM) was 113% and 96.4% and 110%, the viability, T/C (compound 0.1 µM) was 108% and 109% and 97.3% and the viability, T/C (compound 0.316 µM) was 99.2% and 103% and 102%. The viability, T/C (compound 1 µM) was 116% and 99.7% and 105%, the viability, T/C (compound 3.16 µM) was 106% and 100% (2×) and the viability, T/C (compound 10 µM) was 106% and 92.4% and 93.6%. For the same molecule, the pIC50 (curve of compound) was under 5.00.

In the case of COc1cccc2c1C(=O)c1c(O)c3c(c(O)c1C2=O)CC(O)(C(=O)CO)CC3OC1CC(N)C(O)C(C)O1 (stereo not given), the viability, T/C (compound 0.0316 µM) was 99.9% and 99.3% and 97.8%, the viability, T/C (compound 0.1 µM) was 86.1% and 94.3% and 81% and the viability, T/C (compound 0.316 µM) was 45.8% and 52.1% and 60.8%. The viability, T/C (compound 1 µM) was 33.6% and 31% and 57.7%, the viability, T/C (compound 3.16 µM) was 24.8% and 24.6% and 27.7% and the viability, T/C (compound 10 µM) was 1.26% and 0.35% and 6.04%. For the same molecule, the pIC50 (curve of compound) was 6.39 and 6.33 and 6.06.

With CC1COCCN1c1cc(C2(S(C)(=N)=O)CC2)nc(-c2ccnc3[nH]ccc23)n1 (stereo not given) the viability, T/C (compound 0.0316 µM) was 112% and 99% and 92.8%, the viability, T/C (compound 0.1 µM) was 102% and 101% and 90.8% and the viability, T/C (compound 0.316 µM) was 122% and 95% and 90%. The viability, T/C (compound 1 µM) was 94.4% and 94.6% and 92.2%, the viability, T/C (compound 3.16 µM) was 72.2% and 51.3% and 62.8% and the viability, T/C (compound 10 µM) was 36% and 28.3% and 34.5%. For the same molecule, the pIC50 (curve of compound) was 5.20 and 5.47 and 5.27.

O=C(NO)c1cnc(N2CCN(S(=O)(=O)c3ccc4ccccc4c3)CC2)nc1 was tested, and the viability, T/C (compound 0.0316 µM) was 101% and 114% and 112%, the viability, T/C (compound 0.1 µM) was 96.7% and 102% and 94.6% and the viability, T/C (compound 0.316 µM) was 53.2% (2×) and 60.8%. The viability, T/C (compound 1 µM) was 1.44% and 0.67% and 2.74%, the viability, T/C (compound 3.16 µM) was 0.23% and 0.21% and 0.06% and the viability, T/C (compound 10 µM) was 0.22% and 0.09%. For the same molecule, the pIC50 (curve of compound) was 6.47 and 6.48 and 6.42.

Nc1ccn(C2OC(CO)C(O)C2(F)F)c(=O)n1 (stereo not given) + CN(C)c1ccc(Nc2c3ccc(NC(=O)CCN4CCCC4)cc3nc3cc(NC(=O)CCN4CCCC4)ccc23)cc1 was tested, and the pIC50 (curve of first compound, second compound 0.0316 µM) was over 7.50, the pIC50 (curve of first compound, second compound 0.1 µM) was over 7.50 and the pIC50 (curve of first compound, second compound 0.316 µM) was over 7.50. It also gave a pIC50 (curve of first compound, second compound 1 µM) of over 7.50, a pIC50 (curve of first compound, second compound 3.16 µM) of over 7.50 and a pIC50 (curve of first compound, second compound 10 µM) of over 7.50. For the same molecule, the viability, T/C (second compound 0.0316 µM, first compound 0.0316 µM) was 39.4%, the viability, T/C (second compound 0.0316 µM, first compound 0.1 µM) was 18.3% and the viability, T/C (second compound 0.0316 µM, first compound 0.316 µM) was 11.6%. The viability, T/C (second compound 0.0316 µM, first compound 1 µM) was 9.94%, the viability, T/C (second compound 0.0316 µM, first compound 3.16 µM) was 10.2% and the viability, T/C (second compound 0.0316 µM, first compound 10 µM) was 11.1%. It also gave a viability, T/C (second compound 0.1 µM, first compound 0.0316 µM) of 39.2%, a viability, T/C (second compound 0.1 µM, first compound 0.1 µM) of 14.7% and a viability, T/C (second compound 0.1 µM, first compound 0.316 µM) of 12%. The viability, T/C (second compound 0.1 µM, first compound 1 µM) was 9.37%, the viability, T/C (second compound 0.1 µM, first compound 3.16 µM) was 10.9% and the viability, T/C (second compound 0.1 µM, first compound 10 µM) was 8.91%. The viability, T/C (second compound 0.316 µM, first compound 0.0316 µM) was 43.8%, the viability, T/C (second compound 0.316 µM, first compound 0.1 µM) was 20.2% and the viability, T/C (second compound 0.316 µM, first compound 0.316 µM) was 11.3%. It also gave a viability, T/C (second compound 0.316 µM, first compound 1 µM) of 7.36%, a viability, T/C (second compound 0.316 µM, first compound 3.16 µM) of 8.69% and a viability, T/C (second compound 0.316 µM, first compound 10 µM) of 10.9%. The viability, T/C (second compound 1 µM, first compound 0.0316 µM) was 34.6%, the viability, T/C (second compound 1 µM, first compound 0.1 µM) was 19.2% and the viability, T/C (second compound 1 µM, first compound 0.316 µM) was 9.69%. The viability, T/C (second compound 1 µM, first compound 1 µM) was 9.64%, the viability, T/C (second compound 1 µM, first compound 3.16 µM) was 11.7% and the viability, T/C (second compound 1 µM, first compound 10 µM) was 14.1%. For the same molecule, the viability, T/C (second compound 3.16 µM, first compound 0.0316 µM) was 45.3%, the viability, T/C (second compound 3.16 µM, first compound 0.1 µM) was 26% and the viability, T/C (second compound 3.16 µM, first compound 0.316 µM) was 12.3%. It also gave a viability, T/C (second compound 3.16 µM, first compound 1 µM) of 8.37%, a viability, T/C (second compound 3.16 µM, first compound 3.16 µM) of 11.2% and a viability, T/C (second compound 3.16 µM, first compound 10 µM) of 9.17%. For the same molecule, the viability, T/C (second compound 10 µM, first compound 0.0316 µM) was 30.2%, the viability, T/C (second compound 10 µM, first compound 0.1 µM) was 19.6% and the viability, T/C (second compound 10 µM, first compound 0.316 µM) was 7.93%. The viability, T/C (second compound 10 µM, first compound 1 µM) was 6.14%, the viability, T/C (second compound 10 µM, first compound 3.16 µM) was 8.89% and the viability, T/C (second compound 10 µM, first compound 10 µM) was 8.2%.
